In ChEMBL document CHEMBL1201862, “PubChem BioAssay data set” (2004):
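Protocol summary: plate cells (96-well), add compound at 5 concentrations, incubate 48 h, interpolate endpoints linearly. GI50: concentration for 50% inhibition of growth.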 Activity calls are given as the source filed them. Cut-off read from the data, not from the text of the source: active = GI50 up to about 1.1 µM and inactive = higher.

How the values were obtained:
Assay in all cases: NCI tumour cell line growth inhibition, 48 h
[1] = tested on: BT-549
[2] = tested on: HOP-18
[3] = tested on: DMS-273
[4] = tested on: KM-20L2
[5] = tested on: DMS-114
[6] = tested on: LXFL 529
[7] = tested on: M19-MEL
[8] = tested on: XF498
[9] = tested on: RXF 631

Compound: C[N+]1(C)CCc2cc(O)c(O)cc2C1Cc1ccc(O)c(O)c1 (stereo not given)
- GI50 [1]: > 100 µM (inactive)

Compound: C/C=C/CC(C)[C@@H](O)[C@H](NC)C(=O)O (stereo not given in full)
- GI50 [2]: > 100 µM (inactive)
- GI50 [3]: > 100 µM (inactive)
- GI50 [4]: > 100 µM (inactive)
- GI50 [5]: > 100 µM (inactive)
- GI50 [6]: > 100 µM (inactive)
- GI50 [7]: > 100 µM (inactive)

Compound: O=C(/C=C\c1ccc(/C=C/C(=O)Nc2cccc(C3=NCCCN3)c2)cc1)Nc1cccc(C2=NCCCN2)c1
- GI50 [2]: > 100 µM (inactive)
- GI50 [3]: > 100 µM (inactive)
- GI50 [4]: > 56.4 µM (inactive)
- GI50 [7]: > 100 µM (inactive)
- GI50 [8]: < 0.01 µM (active)

Compound: CCCCCCCCCCCCn1c(=O)cc(NCCCC)c2cc3c(NCCCC)cc(=O)n(CCCCCCCCCCCC)c3nc21
- GI50 [1]: > 100 µM (inactive)

Compound: C=C1CC/C=C(\C)CCC[C@H](C)[C@@H](O)[C@@H]2OC(=O)C(=C)[C@@H]2C[C@H]1O
- GI50 [1]: 0.288 µM (active)

Compound: O=C(O)c1nn[nH]c1Cl
- GI50 [1]: > 100 µM (inactive)

Compound: Cc1c2c(n3c(nc4ccccc43)c1C#N)N(c1ccc(F)cc1)CC2
- GI50 [1]: > 100 µM (inactive)

Compound: Cc1cc(C)c2c(c1)CSCc1cc(C)cc(C)c1-2
- GI50 [2]: 37.6 µM (inactive)
- GI50 [3]: 58.1 µM (inactive)
- GI50 [4]: 35.1 µM (inactive)
- GI50 [5]: 25.2 µM (inactive)
- GI50 [6]: 57.5 µM (inactive)
- GI50 [7]: 25.1 µM (inactive)

Compound: Sc1nnc(COc2ccc(Cl)cc2Cl)[nH]1
- GI50 [3]: > 100 µM (inactive)
- GI50 [4]: > 100 µM (inactive)
- GI50 [5]: > 100 µM (inactive)
- GI50 [6]: > 100 µM (inactive)
- GI50 [7]: > 100 µM (inactive)
- GI50 [8]: > 100 µM (inactive)

Compound: CN(C)c1ccc(/C=N/c2nc3cc4sc(/N=C/c5ccc(N(C)C)cc5)nc4cc3s2)cc1
- GI50 [1]: 71 µM (inactive)

Compound: C#CC1(O)CC(c2ccccc2)N(C)C(c2ccccc2)C1 (stereo not given)
- GI50 [3]: > 100 µM (inactive)
- GI50 [4]: > 100 µM (inactive)
- GI50 [5]: > 100 µM (inactive)
- GI50 [6]: > 100 µM (inactive)
- GI50 [9]: > 100 µM (inactive)
- GI50 [7]: > 100 µM (inactive)

Compound: O=C(Nc1sccc1S(=O)(=O)c1ccc(Cl)cc1)c1ccccc1
- GI50 [1]: > 100 µM (inactive)

Compound: O=C(CCc1cc(O)cc(O)c1)NCCc1cc(OCc2ccccc2)cc(OCc2ccccc2)c1
- GI50 [1]: 16.4 µM (inactive)

Compound: O=C(/C=C/c1ccc([N+](=O)[O-])cc1)N1CCN(CCOC(c2ccc(F)cc2)c2ccc(F)cc2)CC1
- GI50 [1]: > 100 µM (inactive)

Compound: CCOC(=O)c1c(SCCN(CC)CC)n(-c2ccccc2)c(=S)n(-c2ccccc2)c1=O
- GI50 [1]: 7.13 µM (inactive)

Compound: Nc1c(Cl)ncnc1NCCCNc1ncnc(Cl)c1N
- GI50 [2]: > 100 µM (inactive)
- GI50 [3]: > 100 µM (inactive)
- GI50 [4]: > 100 µM (inactive)
- GI50 [5]: > 100 µM (inactive)
- GI50 [6]: > 100 µM (inactive)
- GI50 [7]: > 100 µM (inactive)
- GI50 [8]: > 100 µM (inactive)

Compound: O=C(N/C(=C\c1ccc([N+](=O)[O-])cc1)c1nc2ccccc2[nH]1)c1ccccc1
- GI50 [2]: > 100 µM (inactive)
- GI50 [4]: > 100 µM (inactive)
- GI50 [5]: > 100 µM (inactive)
- GI50 [6]: 39.4 µM (inactive)
- GI50 [9]: 43.7 µM (inactive)
- GI50 [7]: > 100 µM (inactive)

Compound: O=S1(=O)OCCOS(=O)(=O)C1Br
- GI50 [3]: > 100 µM (inactive)
- GI50 [5]: > 100 µM (inactive)
- GI50 [6]: > 100 µM (inactive)
- GI50 [9]: > 100 µM (inactive)
- GI50 [7]: > 100 µM (inactive)

Compound: COc1cccc(NC(=O)/C(CS(=O)(=O)CCC(C(C)=O)C(C)=O)=N/NC(C)(C)C)c1
- GI50 [2]: 42.9 µM (inactive)
- GI50 [3]: > 100 µM (inactive)
- GI50 [4]: > 100 µM (inactive)
- GI50 [5]: > 100 µM (inactive)
- GI50 [6]: > 100 µM (inactive)

Compound: Cn1c(=O)c2[nH]c(N=O)nc2n(C)c1=O
- GI50 [1]: > 100 µM (inactive)

Compound: COc1cc(-c2ccccc2)cn2c1nc1ccccc12
- GI50 [1]: 17.8 µM (inactive)

Compound: COc1ccc(OC)c(/C=C(/C#N)c2ccccc2)c1
- GI50 [2]: > 100 µM (inactive)
- GI50 [3]: 4.22 µM (inactive)
- GI50 [4]: 16.6 µM (inactive)
- GI50 [6]: 34.3 µM (inactive)
- GI50 [7]: 22.2 µM (inactive)

Compound: CC(OC1CC(=O)CC2C(=O)C=CC(=O)C12)c1ccccc1 (stereo not given)
- GI50 [2]: 18.2 µM (inactive)
- GI50 [3]: 19.1 µM (inactive)
- GI50 [4]: 17.3 µM (inactive)
- GI50 [5]: 8.05 µM (inactive)
- GI50 [6]: 7.33 µM (inactive)
- GI50 [7]: 16.1 µM (inactive)
- GI50 [8]: 15.8 µM (inactive)

Compound: CN(C)c1c(Cl)c(=O)oc2c1ccc1nc(-c3ccccc3)sc12
- GI50 [1]: > 100 µM (inactive)

Compound: NC(=S)Nc1nnc(-c2ccc(-c3nnc(NC(N)=S)o3)cc2)o1
- GI50 [2]: > 100 µM (inactive)
- GI50 [3]: > 100 µM (inactive)
- GI50 [4]: > 100 µM (inactive)
- GI50 [5]: > 100 µM (inactive)
- GI50 [6]: > 100 µM (inactive)
- GI50 [7]: > 100 µM (inactive)

Compound: CC(=O)Nc1ccc2c3c(cc(O)c2c1)N(C(=O)CCCCCC(=O)Nc1ccc2c4c(cc(O)c2c1)N(C(=O)OC(C)(C)C)CC4CCl)CC3CCl (stereo not given)
- GI50 [1]: 1.87 µM (inactive)

Compound: Oc1ccc(Cl)cc1-c1cc(-c2ccccc2)nc(NCN2CCCCC2)n1
- GI50 [1]: > 100 µM (inactive)
